According to patent publication US11944665B2, “Methods and compositions for modulating lymphatic vessels in the central nervous system” (University of Virginia Patent Foundation, priority 2016, dated 2024):

Tests used:
[1] = system: meningeal lymphatic vessels; assay: Visudyne ablation then repeated Aβ42 injection into CSF, meningeal aggregates (Example 8); format: in vivo, C57BL/6 mice; conditions: Aβ42 2.5 μg every 24 h into CSF for 5 days, from 72 h after ablation, vs vehicle
Description: C57BL/6 adult mice were anesthetized and injected ICM with visudyne to induce meningeal lymphatic vessel ablation, or vehicle as a control. After the photoconversion step, mice were allowed to recover for 72 h. Then, catheters were implanted in the cisterna magna of all mice and 2.5 μg of Aβ42 were injected every 24 h into the CSF for a total of 5 days. […] Results are presented as mean±s.e.m.; n=5 per group; *P<0.05, **P<0.01, one-tailed Mann-Whitney test.

nasal lymphatics = assay: Nasal lymphatics after intranasal Visudyne (Example 25); format: in vivo, mice; conditions: 24 h after intranasal (i.n.) injection
Description: Adult mice were injected i.c.m. with Visudyne. Fifteen to thirty minutes injection, Visudyne was converted using a non-thermal 689 nm laser applied on the intact skull. In the targeted group, the laser was aimed at 5 different spots localized above the meningeal lymphatics. In the non-targeted group, the laser was aimed further away to no convert the Visudyne localized within the meningeal lymphatics.
The density of exogenously injected T cells per mm2 of dCLN in targeted and non-targeted Visudyne treated mice was quantified (FIG. 49A) (expressed as percentage of the control condition)(mean±s.e.m, n=4-6 mice/group, **p=0.0072 Student t test). Images of the nasal lymphatics (Prox1GFP—green, Lyve1—red) were obtained 24 h after laser or intranasal (i.n.) injection of Visudyne. The inset illustrate the lymphatic bundle at the base of the skull that gets ablated after Visudyne treatment. Scale bar=50 μm. The density of T cells per mm2 of dCLN was quantified (FIG. 49B) or percentage of beads coverage was quantified (FIG. 49C) in the dLCN of laser, Visudyne (i.n.)+laser and Visudyne (i.c.m.)+laser treated mice (expressed as percentage of the control condition). […] T cells were quantified in the meninges of laser and Visudyne (i.c.m.)+laser treated mice at 7 days post ablation. T cells were quantified in the meninges of laser and Visudyne (i.c.m.)+laser treated mice (FIG. 49D). […]

[2] = system: meningeal lymphatic vessels; assay: Visudyne meningeal lymphatic ablation, Aβ42 drainage and efflux (Example 1); format: in vivo, C57BL/6 mice; conditions: vs vehicle
Description: Visudyne (verteporfin) or vehicle (as control) were injected into the cisterna magna (intra-cisterna magna, ICM) of anesthetized adult C57BL/6 mice (3 months of age), followed by a photoconversion step that was achieved by shining a non-thermal red light (689 nm) in 5 points above the skull. 7 days after the initial procedure, Aβ42-HiLyte647 (1 μg) was stereotaxically injected (coordinates from bregma, AP=+1.5 mm, ML=−1.5 mm, DV=+2.5 mm) into the brain parenchyma. 1 h post injection, mice were transcardially perfused with saline and meninges, deep cervical lymph nodes (dcLNs) and brain were collected for analysis. Meningeal whole-mounts (scale bar, 1 mm) from vehicle (FIG. 23A) or visudyne (FIG. 23B) injected groups were stained for lymphatic vessel, endothelial hyaluronan receptor 1 (LYVE-1, green) and the blood vascular endothelial cell marker CD31 (red). Visudye alone is shown in the inset in the upper right corner of FIGS. 23A and 23B. […] Aβ42 alone is shown in the inset in the upper right corner of each of FIGS. 23E and 23F, and LYVE-1 alone is shown in the inset in the lower right corner of each of FIGS. 23E and 23F. Coronal brain sections (100 μm thick), both rostral and caudal to the injection site, were stained for glial fibrillary acidic protein (GFAP). […] Results are presented as mean±s.e.m. in FIGS. 23C, D, and G; n=6 in vehicle group and n=5 in visudyne group; *P<0.05. **P<0.01, one-tailed Mann-Whitney test; representative of 2 independent experiments).

meningeal lymphatic = assay: Lymphatic drainage of fluorescent microbeads into deep cervical lymph nodes (FIG. 15); format: in vivo, mice; conditions: pharmacological ablation, 24 h after ablation, vs PBS
Description: FIGS. 15A-E are a series of diagrams, microscope images, and graphs showing modulation of the meningeal lymphatic affects drainage into the cervical lymph nodes. […] Fluorescent microbeads (0.5 μm in diameter-5 μl) were injected in the lateral ventricle of mice at a rate of 0.5 μl/min. 30 min later, the deep cervical lymph nodes were harvested, sliced and immunostained for the presence of fluorescent beads. FIG. 15B is a pair of representative sections of deep cervical lymph nodes from sham operated (left) and ligated (right) mice immunostained for lymphatic vasculature (Lyve-1), fluorescent microbeads and Lyve-1. Note the accumulation of microbeads in the subcapsular space of the lymph nodes in the sham operated mice (left). […] N=3-4 mice per group, Student-t-test. d. Quantification of the coverage of dCLN section by fluorescent beads in PBS and Visudyne injected mice (24 h after ablation). N=3-5 mice per group, *p<0.05, Student-t-test. e. Quantification of the coverage of dCLN section by fluorescent beads in PBS and VEGF-c injected mice (5 days after VEGF-c injection). N=4 mice per group.

verteporfin [Visudyne]
area occupied by Aβ aggregates in meningeal whole-mounts [1]: significant increase in aggregates | nasal lymphatic bundle at the base of the skull (nasal lymphatics): gets ablated | drainage of Aβ42 in dcLNs ([2]; 1 h after Aβ42-HiLyte647 (1 μg) injection into brain parenchyma, 7 days post ablation): significantly less drainage | efflux of Aβ42 from the brain (area fraction occupied by the fluorescent peptide) ([2]; 1 h after Aβ42-HiLyte647 injection, 7 days post ablation): decreased efflux | area of LYVE-1+ vessels (meningeal whole-mounts) ([2]; visudyne ICM + photoconversion 689 nm, adult mice, 7 days after): significant decrease | coverage by CD31+ vessels (meningeal whole-mounts) ([2]; visudyne ICM + photoconversion, 7 days after): no changes | lymphatic drainage into the cervical lymph nodes after ablation (meningeal lymphatic): alteration of lymphatic drainage
